Assay [1] has as its system SKBR3 (PI3Kα wild type) cells. The assay can be described thus: CellTiter-Glo 2.0 luminescent cell viability assay, 72 hours, SKBR3 cells. It counts as cell-based. The following applies: Homo sapiens, SK-BR-3, 72 h, SKBR3 (PI3Kα wild type) cells, CellTiter-Glo, approximately 72 hours; read-out: SKBR3 (WT) Viability IC50. The method in brief:
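Viability measured via CTG luminescence following roughly 72 hours of compound exposure at 37° C. Dosing used a 10 um starting concentration diluted 1:4 over 10 points; percent-of-vehicle data fitted with a variable-slope four-parameter model for IC50.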
For orientation: Cellular ATP, detected with luciferase, serves as a proxy for viable cell number.

Assay [2] concerns T47D (PI3Kα H1047R mutant) cells. The assay can be described thus: CellTiter-Glo 2.0 luminescent cell viability assay, 72 hours, T47D cells. It counts as cell-based. The following applies: Homo sapiens, T47D, 72 h, T47D (PI3Kα H1047R mutant) cells, CellTiter-Glo, approximately 72 hours; read-out: T47D (H1047R mutant) Viability IC50. The method in brief: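 Viability was measured by CellTiter-Glo 2.0 luminescence after approximately 72 h of compound exposure at 37° C. Plating was 1000 cells per well the day before dosing, with ten 1:4 dilutions from a 10 µM top concentration. Values as percent of vehicle were fitted by variable-slope log(inhibitor) regression to give IC50.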

The results in this text go back to patent US20260078120A1, “SUBSTITUTED PYRIDOPYRIMIDINONES” (MIRATI THERAPEUTICS, INC., priority 2022, published 2026).

A word on the IC50: it is the concentration needed to halve the response being measured. For the compound `Cc1cc([C@@H](C)Nc2ccc(C)nc2C(=O)O)c2nc(N3CCC(F)(F)CC3)c(C)c(=O)n2c1` [Example 11-46, (R)-3-((1-(2-(4,4-difluoropiperidin-1-yl)-3,7-dimethyl-4-oxo-4H-pyrido[1,2-a]pyrimidin-9-yl)ethyl)amino)-6-methylpicolinic acid], the IC50 in assay [1] is above 10 µM; in assay [2] it was 0.15 µM.

As for `Cc1cc([C@@H](C)Nc2ccc(F)nc2C(=O)O)c2nc(N3CCC(F)(F)CC3)c(C#N)c(=O)n2c1` [Example 11-44, (R)-3-((1-(3-cyano-2-(4,4-difluoropiperidin-1-yl)-7-methyl-4-oxo-4H-pyrido[1,2-a]pyrimidin-9-yl)ethyl)amino)-6-fluoropicolinic acid], the values for the IC50 in assay [1] and in assay [2] were above 10 µM and 9.55 µM, respectively.

As to `Cc1cc(C(C)Nc2ccccc2C(=O)O)c2nc(N3CCN(C(=O)C4CC4)CC3)cc(=O)n2c1` (stereo not drawn) [Example 11-336, 2-((1-(2-(4-(cyclopropanecarbonyl)piperazin-1-yl)-7-methyl-4-oxo-4H-pyrido[1,2-a]pyrimidin-9-yl)ethyl)amino)benzoic acid], the IC50 in assay [1] was above 10 µM; in assay [2] it was 2.74 µM.

In the case of `Cc1cc([C@@H](C)Nc2ccccc2C(=O)O)c2nc(N3C[C@@H]4C[C@H]3CN4c3ccc(C#N)cc3)c(C#N)c(=O)n2c1` [Example 11-175, 2-(((R)-1-(3-cyano-2-((1S,4S)-5-(4-cyanophenyl)-2,5-diazabicyclo[2.2.1]heptan-2-yl)-7-methyl-4-oxo-4H-pyrido[1,2-a]pyrimidin-9-yl)ethyl)amino)benzoic acid], the values for the IC50 in assay [1] and in assay [2] were above 10 µM and 3 µM, respectively.

Regarding `Cc1cc(C(C)Nc2cccc(C)c2C(=O)O)c2nc(N3CCCCC3)cc(=O)n2c1` (stereo not drawn) [Example 11-390, 2-methyl-6-((1-(7-methyl-4-oxo-2-(piperidin-1-yl)-4H-pyrido[1,2-a]pyrimidin-9-yl)ethyl)amino)benzoic acid], the IC50 in assay [1] and in assay [2] was above 10 µM throughout.

On to `COc1cccc(-c2cc(=O)n3cc(C)cc(C(C)Nc4ccccc4C(=O)O)c3n2)c1` (stereo not drawn) [Example 11-393, 2-((1-(2-(3-methoxyphenyl)-7-methyl-4-oxo-4H-pyrido[1,2-a]pyrimidin-9-yl)ethyl)amino)benzoic acid], for which the 50% inhibitory concentration (IC50) in assay [1] was above 10 µM; in assay [2], 1.29 µM.

`Cc1cc([C@@H](C)Nc2ccccc2C(=O)O)c2nc(N3CC4(COC4)C3)c(C#N)c(=O)n2c1` [Example 11-321, (R)-2-((1-(3-cyano-7-methyl-4-oxo-2-(2-oxa-6-azaspiro[3.3]heptan-6-yl)-4H-pyrido[1,2-a]pyrimidin-9-yl)ethyl)amino)benzoic acid]: the IC50 in assay [1] is above 10 µM; in assay [2], 2.8 µM.

For `Cc1cc([C@@H](C)Nc2ccccc2C(=O)O)c2nc(NCC(C)C(F)(F)F)c(C#N)c(=O)n2c1` (stereo partly drawn) [Example 11-49, 2-(((1R)-1-(3-cyano-7-methyl-4-oxo-2-((3,3,3-trifluoro-2-methylpropyl)amino)-4H-pyrido[1,2-a]pyrimidin-9-yl)ethyl)amino)benzoic acid], the results for the IC50 in assay [1] and in assay [2] were above 10 µM and 0.204 µM, respectively.

Regarding `Cc1cc([C@@H](C)Nc2ccccc2C(=O)O)c2nc(N3CC45COCC4(COC5)C3)c(C)c(=O)n2c1` (stereo partly drawn) [Example 10-148, 2-(((R)-1-(2-((3aS,6aS)-1H,3H,4H-3a,6a-(methanooxymethano)furo[3,4-c]pyrrol-5(6H)-yl)-3,7-dimethyl-4-oxo-4H-pyrido[1,2-a]pyrimidin-9-yl)ethyl)amino)benzoic acid], the IC50 in assay [1] is above 10 µM; in assay [2], 0.108 µM.

`Cc1cc(C(C)Nc2ccccc2C(=O)O)c2nc(-c3ccccc3C#N)cc(=O)n2c1` (stereo not drawn) [Example 11-399, 2-((1-(2-(2-cyanophenyl)-7-methyl-4-oxo-4H-pyrido[1,2-a]pyrimidin-9-yl)ethyl)amino)benzoic acid]: the half-maximal inhibitory concentration (IC50) in assay [1] and in assay [2] was above 10 µM in each case.

`Cc1cc([C@@H](C)Nc2ccccc2C(=O)O)c2nc(N3CC[C@H](C)C(F)(F)C3)c(C)c(=O)n2c1` [Example 11-60, 2-(((R)-1-(2-((S)-3,3-difluoro-4-methylpiperidin-1-yl)-3,7-dimethyl-4-oxo-4H-pyrido[1,2-a]pyrimidin-9-yl)ethyl)amino)benzoic acid]: the results for the IC50 in assay [1] and in assay [2] were above 10 µM and 0.158 µM, respectively.

Turning to `Cc1cc([C@@H](C)Nc2ccccc2C(=O)O)c2nc(-c3cn(-c4ccc(C#N)cc4)cn3)c(C)c(=O)n2c1` [Example 11-236, (R)-2-((1-(2-(1-(4-cyanophenyl)-1H-imidazol-4-yl)-3,7-dimethyl-4-oxo-4H-pyrido[1,2-a]pyrimidin-9-yl)ethyl)amino)benzoic acid], the IC50 in assay [1] is above 10 µM; in assay [2] it was 0.679 µM.

For `CCC(O)c1cc(C)cn2c(=O)cc(N3CCCCC3)nc12` (stereo not drawn) [Example 11-410, 9-(1-hydroxypropyl)-7-methyl-2-(piperidin-1-yl)-4H-pyrido[1,2-a]pyrimidin-4-one], the concentration for half-maximal inhibition (IC50) in assay [1] and in assay [2] was above 10 µM in each case.

For `Cc1ccc2c(c1)CN(c1nc3c([C@@H](C)Nc4ccccc4C(=O)O)cc(C)cn3c(=O)c1C)C2` [Example 11-17, (R)-2-((1-(3,7-dimethyl-2-(5-methylisoindolin-2-yl)-4-oxo-4H-pyrido[1,2-a]pyrimidin-9-yl)ethyl)amino)benzoic acid], the IC50 in assay [1] was above 10 µM; in assay [2] it was 0.796 µM.

Consider `Cc1cc([C@@H](C)Nc2ccccc2C(=O)O)c2nc(N3CCC(F)(F)[C@@H]3C)c(C)c(=O)n2c1` [Example 11-122, 2-(((R)-1-(2-((S)-3,3-difluoro-2-methylpyrrolidin-1-yl)-3,7-dimethyl-4-oxo-4H-pyrido[1,2-a]pyrimidin-9-yl)ethyl)amino)benzoic acid], for which the IC50 is above 10 µM in assay [1] and 0.32 µM in assay [2].

Consider `Cc1cc([C@@H](C)Nc2ccc(Cl)nc2C(=O)O)c2nc(N3CCN(c4ccc(C#N)cc4C)CC3)c(C#N)c(=O)n2c1` [Example 11-132, (R)-6-chloro-3-((1-(3-cyano-2-(4-(4-cyano-2-methylphenyl)piperazin-1-yl)-7-methyl-4-oxo-4H-pyrido[1,2-a]pyrimidin-9-yl)ethyl)amino)picolinic acid], for which the IC50 in assay [1] is above 10 µM; in assay [2], 0.173 µM.

On to `Cc1cc(C(C)Nc2ccccc2C(=O)O)c2nc(OC3CCOC3)cc(=O)n2c1` (stereo not drawn) [Example 11-371, 2-((1-(7-methyl-4-oxo-2-((tetrahydrofuran-3-yl)oxy)-4H-pyrido[1,2-a]pyrimidin-9-yl)ethyl)amino)benzoic acid], for which the values for the IC50 in assay [1] and in assay [2] were 3.04 µM and 9.07 µM, respectively.

On to `Cc1cc([C@H](C)Nc2ccccc2C(=O)O)c2nc([C@@H]3CCN(C)C(=O)C3)cc(=O)n2c1` [Example 11-375, 2-(((S)-1-(7-methyl-2-((R)-1-methyl-2-oxopiperidin-4-yl)-4-oxo-4H-pyrido[1,2-a]pyrimidin-9-yl)ethyl)amino)benzoic acid], for which the IC50 in assay [1] and in assay [2] was above 10 µM each time.

`Cc1cc([C@@H](C)Nc2ccccc2C(=O)O)c2nc(N3C[C@H]4C[C@@H]3CN4CC(F)F)c(C)c(=O)n2c1` [Example 11-443, 2-(((R)-1-(2-((1R,4R)-5-(2,2-difluoroethyl)-2,5-diazabicyclo[2.2.1]heptan-2-yl)-3,7-dimethyl-4-oxo-4H-pyrido[1,2-a]pyrimidin-9-yl)ethyl)amino)benzoic acid]: the IC50 in assay [1] is above 10 µM; in assay [2], 0.13 µM.

`Cc1cc([C@@H](C)OC(=O)c2nc(Cl)ccc2N)c2nc(N3CCCCC3)c(C#N)c(=O)n2c1` [Example 11-330, (R)-1-(3-cyano-7-methyl-4-oxo-2-(piperidin-1-yl)-4H-pyrido[1,2-a]pyrimidin-9-yl)ethyl 3-amino-6-chloropicolinate]: the IC50 in assay [1] and in assay [2] was above 10 µM each time.

As to `Cc1c(N2Cc3ccccc3C2)nc2c([C@@H](C)Nc3ccccc3C(=O)O)cc(F)cn2c1=O` [Example 11-290, (R)-2-((1-(7-fluoro-2-(isoindolin-2-yl)-3-methyl-4-oxo-4H-pyrido[1,2-a]pyrimidin-9-yl)ethyl)amino)benzoic acid], the figures for the IC50 in assay [1] and in assay [2] were above 10 µM and 0.392 µM, respectively.

In the case of `Cc1cc([C@@H](C)Nc2ccc(Cl)c(F)c2C(=O)O)c2nc(N3CCC(F)(F)CC3)c(C#N)c(=O)n2c1` [Example 11-89, (R)-3-chloro-6-((1-(3-cyano-2-(4,4-difluoropiperidin-1-yl)-7-methyl-4-oxo-4H-pyrido[1,2-a]pyrimidin-9-yl)ethyl)amino)-2-fluorobenzoic acid], the values for the concentration for half-maximal inhibition (IC50) in assay [1] and in assay [2] were above 10 µM and 3.15 µM, respectively.

Consider `Cc1cc([C@@H](C)Nc2ccccc2C(=O)O)c2nc(N3C[C@H](F)C[C@@H](F)C3)c(C#N)c(=O)n2c1` [Example 11-47, 2-(((R)-1-(3-cyano-2-((3R,5R)-3,5-difluoropiperidin-1-yl)-7-methyl-4-oxo-4H-pyrido[1,2-a]pyrimidin-9-yl)ethyl)amino)benzoic acid], for which the results for the IC50 in assay [1] and in assay [2] were above 10 µM and 0.242 µM, respectively.

Regarding `Cc1cc([C@@H](C)Nc2ccccc2C(=O)O)c2nc(N3CC4(C3)CC(F)(F)C4)c(C)c(=O)n2c1` [Example 11-202, (R)-2-((1-(2-(6,6-difluoro-2-azaspiro[3.3]heptan-2-yl)-3,7-dimethyl-4-oxo-4H-pyrido[1,2-a]pyrimidin-9-yl)ethyl)amino)benzoic acid], the results for the IC50 in assay [1] and in assay [2] were above 10 µM and 0.303 µM, respectively.
